Experimental findings from ChEMBL document CHEMBL4043221, “Natural neuro-inflammatory inhibitors from Caragana turfanensis” (Bioorg Med Chem Lett, 2017) are described below.

For orientation: IC50 means the concentration that gives 50% inhibition.

Series [1] concerns BV-2. As to the kind of experiment: Antineuroinflammatory activity in mouse BV2 cells assessed as inhibition of LPS-induced NO production after 24 hrs in presence of LPS by Griess reaction based assay. In kind it is functional, cell-based. As to conditions: BV-2, 24 h.
Series [2] has as its system BV-2. As to the kind of experiment: Cytotoxicity against mouse BV2 cells assessed as reduction in cell viability at 1 to 100 uM after 24 hrs in presence of LPS by MTT assay. Type of series: cell-based. The conditions noted are these: bv-2, 24 h. In general terms: Tetrazolium dyes change colour on reduction, which living cells bring about.

On to `COc1ccc(-c2coc3cc(O)ccc3c2=O)cc1` [FORMONONETIN], for which, in the series on BV-2 [1], the IC50 was 13.2 µM. In addition, the Activity result in the series on BV-2 [2] is reported as “Non-Toxic”. As to `Oc1ccc(/C=C/c2cc(O)cc(O)c2)cc1` [RESVERATROL], the IC50 with BV-2 [1] was found to be 18.7 µM. Moreover, the Activity entry with BV-2 [2] is “Non-Toxic”. For the compound `COc1ccc(-c2coc3cc(O)cc(O)c3c2=O)cc1O` [PRATENSEIN], the IC50 in the series with BV-2 [1] was > 100 µM. Regarding `O=C(O)c1ccc(O)c(O)c1` [PROTOCATECHUIC ACID], the IC50 in the series on BV-2 [1] is > 100 µM. `COc1cc([C@H]2OC[C@H]3[C@@H]2CO[C@H]3c2cc(OC)c(O)c(OC)c2)cc(OC)c1O`: the IC50 in the series with BV-2 [1] is > 100 µM. As to `COc1ccc(-c2coc3c(O)c(O)ccc3c2=O)cc1O`, the IC50 in the series with BV-2 [1] was 6.87 µM. The Activity result in the series on BV-2 [2] is recorded as “Non-Toxic”.

As for `O=C(O)c1ccc(O)cc1` [PARABEN], the IC50 in the series on BV-2 [1] is > 100 µM. Consider `COc1cc([C@H]2OC[C@H]3[C@@H]2CO[C@@H]3c2cc(OC)c(O[C@@H]3O[C@H](CO)[C@@H](O)[C@H](O)[C@H]3O)c(OC)c2)cc(OC)c1O[C@@H]1O[C@H](CO)[C@@H](O)[C@H](O)[C@H]1O` [LIRIODENDRIN], for which, in the series with BV-2 [1], the IC50 was > 100 µM.

Turning to `O=C(O)/C=C/c1ccccc1O` [O-COUMARIC ACID], in the series with BV-2 [1], the IC50 is > 100 µM.

`C[N+](C)(C)C(Cc1c[nH]c2ccccc12)C(=O)[O-]` (centres undefined): in the series with BV-2 [1], the IC50 is > 100 µM. Consider `CCCCCCCCCCCCCCCCCCOC(=O)/C=C/c1ccc(O)c(O)c1`, for which the IC50 in the series on BV-2 [1] was > 100 µM. In the case of `O=C1CC(c2cc(O)cc(O)c2)Oc2cc(O[C@@H]3O[C@H](CO)[C@@H](O)[C@H](O)[C@H]3O)cc(O)c21` (some centres undefined), the IC50 with BV-2 [1] was > 100 µM. For `COc1cc(O)c(-c2cc3ccc(O)cc3oc2=O)cc1OC`, the 50% inhibitory concentration (IC50) in the series with BV-2 [1] turned out to be 1.01 µM. For the same compound, the Activity result with BV-2 [2] was “Non-Toxic”. The corresponding values for `O=c1c(O)c(-c2ccc(O)c(O)c2)oc2cc(O)ccc12` [FISETIN] are 73 µM and “Non-Toxic”.

In the case of `O=C(O)/C=C/c1ccc(O)cc1` [COUMARIC ACID], the IC50 with BV-2 [1] is > 100 µM.

`O=C(/C=C/c1ccc(O)cc1)c1ccc(O)cc1O` [ISOLIQUIRITIGENIN]: the IC50 with BV-2 [1] is > 100 µM.

Take `COc1ccc(-c2coc3cc(O)ccc3c2=O)cc1O` [CALYCOSIN]: the IC50 in the series with BV-2 [1] is 39.6 µM. In the series with BV-2 [2], the Activity entry was “Non-Toxic”. Regarding `CC[C@H](CC[C@@H](C)[C@H]1CC[C@H]2[C@@H]3C(=O)C=C4C[C@@H](O)CC[C@]4(C)[C@H]3CC[C@]12C)C(C)C`, the IC50 with BV-2 [1] was > 100 µM. `O=C(O)/C=C/c1ccccc1` [CINNAMIC ACID]: the IC50 in the series with BV-2 [1] was > 100 µM. Turning to `CN(C)c1ccc(O)c2c1C[C@H]1C[C@H]3[C@H](N(C)C)C(O)=C(C(N)=O)C(=O)[C@@]3(O)C(O)=C1C2=O` [MINOCYCLINE], in the series on BV-2 [1], the IC50 is 9.07 µM. For the compound `CCCCCCCCCCCCCCCCCCCCCCCCOC(=O)/C=C/c1ccc(O)c(OC)c1`, the IC50 with BV-2 [1] is > 100 µM. For `COc1cc([C@H]2OC[C@@H]3[C@H]2CO[C@@H]3c2cc(OC)c(O)c(OC)c2)ccc1O`, the IC50 with BV-2 [1] is > 100 µM.

On to `COc1cc([C@@H]2OC[C@@H]3[C@H]2CO[C@H]3c2cc(OC)c(O)c(OC)c2)cc(OC)c1O`, for which the IC50 with BV-2 [1] is > 100 µM. As for `O=C(C[C@@H](O)c1ccc(O)c(O)c1)c1ccc(O)cc1O`, in the series with BV-2 [1], the IC50 is 72.6 µM. Also, the Activity result in the series with BV-2 [2] is given as “Non-Toxic”.

On to `COc1ccc(-c2coc3cc(O)c(OC)cc3c2=O)cc1O` [ODORATIN], for which the IC50 with BV-2 [1] amounted to 18.5 µM. In addition, in the series with BV-2 [2], the Activity entry is listed as “Non-Toxic”. Consider `Oc1cc(O)cc(/C=C/c2ccc(O)c(O)c2)c1` [PICEATANNOL], for which the IC50 in the series with BV-2 [1] is 80.5 µM. Besides, the Activity result in the series with BV-2 [2] was “Non-Toxic”. The corresponding values for `COc1cc([C@H]2OC[C@H]3[C@@H]2CO[C@@H]3c2ccc(O)c(OC)c2)ccc1O` are 76.2 µM and “Non-Toxic”. For the compound `C=C(C)[C@@H]1CC[C@]2(C)CC[C@]3(C)[C@H](CC[C@@H]4[C@@]5(C)CC[C@H](O)C(C)(C)[C@@H]5CC[C@]43C)[C@@H]12` [LUPEOL], in the series on BV-2 [1], the IC50 is > 100 µM. Consider `Oc1cc(O)c2c(c1)C1C(c3cc(O)cc(O)c3[C@H]1c1ccc(O)c(O)c1)[C@@H]2c1ccc(O)c(O)c1` (some centres undefined), for which the IC50 in the series with BV-2 [1] was > 100 µM. Still for that read-out and setting: for `O=C1c2ccc(O)cc2O[C@@H](c2ccc(O)c(O)c2)[C@@H]1O` the value was > 100 µM; for `O=c1c(-c2ccc(O)c(O)c2)coc2cc(O)ccc12`, > 100 µM; for `COc1ccc2c(c1)O[C@H](c1ccc(O)c(O)c1)CC2=O`, > 100 µM. Still for that read-out and setting: for `O=Cc1ccc(O)c(O)c1` [PROTOCATECHUALDEHYDE] the value was > 100 µM; for `CCCCCCCCCCCCCCCCCCCCCCCCCC(=O)O` [HEXACOSANOIC ACID], > 100 µM.
